Reference: ChEMBL document CHEMBL5126519, “Tuberculosis drug discovery: Progression and future interventions in the wake of emerging resistance” (Eur J Med Chem, 2022)
pIC50: −log10 of the molar value. ≈ marks a conversion by molar mass, not a printed value.

Experiments:
[1] = test system: Mycobacterium tuberculosis; test: Antimycobacterial activity against Mycobacterium tuberculosis expressing GFP; type: functional
[2] = test system: Mycobacterium tuberculosis; test: Antimycobacterial activity against Mycobacterium tuberculosis H37Rv by MABA assay; type: functional
[3] = test system: Mycobacterium tuberculosis; test: Antimycobacterial activity against drug-sensitive Mycobacterium tuberculosis; type: functional
[4] = test system: Mycobacterium tuberculosis; test: Antimycobacterial activity against Mycobacterium tuberculosis; type: functional
[5] = test system: Mycobacterium tuberculosis; test: Antimycobacterial activity against Mycobacterium tuberculosis H37Rv by microplate alamar blue assay; type: functional
[6] = test system: Mycobacterium tuberculosis; test: Antimycobacterial activity against Mycobacterium tuberculosis H37Rv by agar dilution method; type: functional
[7] = test system: Mycobacterium tuberculosis; test: Antimycobacterial activity against drug-susceptible Mycobacterium tuberculosis H37Rv; type: functional
[8] = test system: Mycobacterium tuberculosis; test: Antimycobacterial activity against Mycobacterium tuberculosis infected in mouse; type: functional
[9] = Inhibition of mammalian mitochondrial protein synthesis; type: mitochondria, Mitochondria
[10] = test system: Mycobacterium tuberculosis; test: Antimycobacterial activity against non-replicating Mycobacterium tuberculosis H37Rv by time kill kinetic assay; type: functional

Compound: COCCNC(=O)c1cn(Cc2ccc(F)cc2)c2ccc([N+](=O)[O-])cc2c1=O
- MIC [1]: < 0.244 µM

Compound: Cc1c(C(=O)OCc2ccccc2)[n+]([O-])c2cc(F)c(-n3cncn3)cc2[n+]1[O-]
- MIC [2]: ≤ 0.25 µg/mL

Compound: CCNC(=O)Nc1nc2nc(-c3cnc(C(C)(C)O)nc3)c(F)c([C@H]3CCCO3)c2[nH]1
- MIC [3]: 0.03 µg/mL (≈ 0.0699 µM)

Compound: Cc1cc(/C=C/c2ccc3cc(N(C)C)ccc3[n+]2C)c(C)n1-c1ccccc1.Cc1cc(/C=C/c2ccc3cc(N(C)C)ccc3[n+]2C)c(C)n1-c1ccccc1.O=C(O)c1cc2ccccc2c(Cc2c(O)c(C(=O)O)cc3ccccc23)c1O
- MIC99 [3]: 1.55 µg/mL

Compound: O[C@@H](c1cc(C(F)(F)F)nc2c(C(F)(F)F)cccc12)[C@H]1CCCCN1 [(S,R)-MEFLOQUINE]
- MIC [4]: 10 µM

Compound: CC(C)(C)NCC(O)CSc1nc(-c2ccc(C(N)=O)s2)cs1 (stereo not drawn) [AROTINOLOL]
- MIC [5]: 3.12 µM (≈ 1.16 µg/mL)

Compound: COc1nc2ccc(Br)cc2cc1[C@@H](c1ccccc1)[C@@](O)(CCN(C)C)c1cccc2ccccc12 [BEDAQUILINE]
- MIC [6]: 0.015 µg/mL (≈ 0.027 µM)

Compound: C[C@H]1COC2(CCN(c3nc(=O)c4cc(C(F)(F)F)cc([N+](=O)[O-])c4s3)CC2)O1 [BTZ-043]
- MIC [4]: 0.001 µg/mL

Compound: C[C@]1(COc2ccc(N3CCC(Oc4ccc(OC(F)(F)F)cc4)CC3)cc2)Cn2cc([N+](=O)[O-])nc2O1 [DELAMANID]
- MIC [7]: 0.0005 µg/mL (≈ 0.000935 µM)

Compound: CC1=NN(c2ccc(C)c(C)c2)C(=O)/C1=N\Nc1cccc(-c2cccc(C(=O)O)c2)c1O [ELTROMBOPAG]
- MIC [5]: 6.25 µM (≈ 2.77 µg/mL)

Compound: NC[C@H]1OB(O)c2c(OCCO)ccc(Cl)c21 [GANFEBOROLE]
- MIC [2]: 0.08 µM
- ED99 [8]: 0.4 mg/kg

Compound: CN(C)[C@@H]1C(O)=C(C(=O)NCNCCCC[C@H](N)C(=O)O)C(=O)[C@@]2(O)C(O)=C3C(=O)c4c(O)cccc4[C@@](C)(O)[C@H]3C[C@@H]12 [LYMECYCLINE]
- MIC [4]: 166 µM

Compound: O=c1nc(N2CCN(CC3CCCCC3)CC2)sc2c([N+](=O)[O-])cc(C(F)(F)F)cc12 [MACOZINONE]
- MIC [4]: 0.00019 µg/mL

Compound: COc1c(N2C[C@@H]3CCCN[C@@H]3C2)c(F)cc2c(=O)c(C(=O)O)cn(C3CC3)c12 [MOXIFLOXACIN]
- MIC [4]: 1.1 µM

Compound: CC(=O)Oc1ccccc1C(=O)Nc1ncc([N+](=O)[O-])s1 [NITAZOXANIDE]
- MIC [4]: 33.2 µM

Compound: O=[N+]([O-])c1cn2c(n1)OC[C@@H](OCc1ccc(OC(F)(F)F)cc1)C2 [PRETOMANID]
- MIC [3]: 0.015 µg/mL (≈ 0.0418 µM)

Compound: CC(C)=CCC/C(C)=C/CNCCNC1C2CC3CC(C2)CC1C3 (stereo not drawn) [SQ109]
- MIC [4]: 0.78 µg/mL

Compound: CC(=O)NC[C@H]1CN(c2ccc(N3CCSCC3)c(F)c2)C(=O)O1 [SUTEZOLID]
- MIC [4]: 0.062 µg/mL

Compound: COC(=O)NC[C@H]1CN(c2ccc(N3CC4(COC4)C3)c(F)c2)C(=O)O1 [TBI-223]
- pIC50 [9]: < 4.13

Compound: CCc1nc2ccc(Cl)cn2c1C(=O)NCc1ccc(N2CCC(c3ccc(OC(F)(F)F)cc3)CC2)cc1 [TELACEBEC]
- MIC [4]: 0.008 µg/mL

Compound: CSc1ccc2c(c1)N(CCC1CCCCN1C)c1ccccc1S2 (stereo not drawn) [THIORIDAZINE]
- MIC [4]: 19.6 µM

Compound: COc1ccc(CCN(C)CCCC(C#N)(c2ccc(OC)c(OC)c2)C(C)C)cc1OC (stereo not drawn) [VERAPAMIL]
- MIC [10]: 512 µM (≈ 233 µg/mL)
